Experiments:
[1] = target: T1, FLT3-ITD (Homo sapiens, UniProt P36888); test: AlphaScreen kinase assay with recombinant enzyme, FLT3-ITD; assay type: biochemical; conditions: 8pt; read-out: FLT3_ITD 8pt: IC50
T1 sequence (P36888 1-993): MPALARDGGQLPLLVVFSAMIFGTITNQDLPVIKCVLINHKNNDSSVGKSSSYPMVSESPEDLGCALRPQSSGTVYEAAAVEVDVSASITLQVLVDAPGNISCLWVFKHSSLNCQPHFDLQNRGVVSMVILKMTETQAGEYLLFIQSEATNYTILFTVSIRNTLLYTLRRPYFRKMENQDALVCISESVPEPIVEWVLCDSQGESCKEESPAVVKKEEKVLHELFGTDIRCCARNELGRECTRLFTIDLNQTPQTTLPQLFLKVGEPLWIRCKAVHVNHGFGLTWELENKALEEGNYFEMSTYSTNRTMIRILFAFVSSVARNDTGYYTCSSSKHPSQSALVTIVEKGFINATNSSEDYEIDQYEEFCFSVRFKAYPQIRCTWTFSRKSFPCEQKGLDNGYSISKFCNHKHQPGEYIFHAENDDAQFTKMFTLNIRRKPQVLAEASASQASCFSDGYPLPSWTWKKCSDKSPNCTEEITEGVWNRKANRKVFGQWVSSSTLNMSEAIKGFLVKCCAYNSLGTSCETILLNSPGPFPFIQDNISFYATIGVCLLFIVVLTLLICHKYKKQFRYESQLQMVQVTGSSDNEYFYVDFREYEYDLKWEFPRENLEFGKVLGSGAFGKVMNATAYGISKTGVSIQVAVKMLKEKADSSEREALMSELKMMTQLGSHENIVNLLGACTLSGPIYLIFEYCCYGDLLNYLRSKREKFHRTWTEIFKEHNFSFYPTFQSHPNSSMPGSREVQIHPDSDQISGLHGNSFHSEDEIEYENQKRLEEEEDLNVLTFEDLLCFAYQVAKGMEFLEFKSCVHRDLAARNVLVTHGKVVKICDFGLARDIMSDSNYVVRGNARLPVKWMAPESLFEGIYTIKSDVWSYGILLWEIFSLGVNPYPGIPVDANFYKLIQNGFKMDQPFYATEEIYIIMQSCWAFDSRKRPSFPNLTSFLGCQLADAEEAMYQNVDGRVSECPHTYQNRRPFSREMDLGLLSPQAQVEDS
How it was run: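 Read-out: AlphaScreen proximity signal at 580 nm (680 nm excitation), lost as peptide tyrosine phosphorylation falls. Substrate Biotin-GG(EEEEY)10EE at 30 nM; IC50 runs at 10 μM (FLT3 mutants) or 100 μM (c-KIT) final. Donor beads 20 min, then acceptor beads 60 min, room temperature.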

[2] = test system: MOLM-14 D835Y cells, FLT3 ITD and FLT3 D835Y; test: Cell proliferation assay (CellTiter-Glo), MOLM-14 D835Y; assay type: cell-based; conditions: Homo sapiens, 72 h, 3d-Growth, GMean
How it was run: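 Three-day growth at 37 °C, 5% CO2 under compound (1 μM top final, 1:3 dilutions, eight points, 0.2% DMSO), read as ATP luminescence by CellTiter-Glo for IC50. Cells: MOLM-14 with FLT3 ITD plus D835Y or F691L, and IL-3-deprived Ba/F3 transfected with FLT3 ITD/D835Y, 1×10^4 per well.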

## CC(C)(C#N)NC(=O)c1cccc(-c2cnc3[nH]c(C4=CCN(S(=O)(=O)C5CC5)CC4)cc3c2)n1 [Compound P-0188, N-(1-cyano-1-methyl-ethyl)-6-[2-(1-cyclopropylsulfonyl-3,6-dihydro-2H-pyridin-4-yl)-1H-pyrrolo[2,3-b]pyridin-5-yl]pyridine-2-carboxamide]
[1]
  IC50: 0.0001 to 10 µM
[2]
  IC50: 0.0001 to 10 µM

## O=C(NC1(CO)CC1)c1cccc(-c2cnc3[nH]c(-c4ccccc4)cc3c2)n1 [Compound P-0151, N-[1-(hydroxymethyl)cyclopropyl]-6-(2-phenyl-1H-pyrrolo[2,3-b]pyridin-5-yl)pyridine-2-carboxamide]
[1]
  IC50: 0.0001 to 10 µM
[2]
  IC50: 0.0001 to 10 µM

## N#CC1CCN(C(=O)c2cccc(-c3cnc4[nH]c(C5=CCOCC5)cc4c3)n2)C1 (stereo not drawn) [Compound P-0132, 1-[6-[2-(3,6-dihydro-2H-pyran-4-yl)-1H-pyrrolo[2,3-b]pyridin-5-yl]pyridine-2-carbonyl]pyrrolidine-3-carbonitrile]
[1]
  IC50: 0.0001 to 10 µM
[2]
  IC50: 0.0001 to 10 µM

## CC(C)(C#N)CNC(=O)c1cccc(-c2cnc3[nH]c(-c4ccc(F)cc4)cc3c2)n1 [Compound P-0144, N-(2-cyano-2-methyl-propyl)-6-[2-(4-fluorophenyl)-1H-pyrrolo[2,3-b]pyridin-5-yl]pyridine-2-carboxamide]
[1]
  IC50: 0.0001 to 10 µM
[2]
  IC50: 0.0001 to 10 µM

## CC(C)(C#N)NC(=O)c1cccc(-c2cnc3[nH]c(-c4ccc(F)cc4)cc3c2)n1 [Compound P-0145, N-(1-cyano-1-methyl-ethyl)-6-[2-(4-fluorophenyl)-1H-pyrrolo[2,3-b]pyridin-5-yl]pyridine-2-carboxamide]
[1]
  IC50: 0.0001 to 10 µM
[2]
  IC50: 0.0001 to 10 µM

## N#CC1(NC(=O)c2cccc(-c3cnc4[nH]c(-c5ccccc5)cc4c3)n2)CCCC1 [Compound P-0146, N-(1-cyanocyclopentyl)-6-(2-phenyl-1H-pyrrolo[2,3-b]pyridin-5-yl)pyridine-2-carboxamide]
[1]
  IC50: 0.0001 to 10 µM
[2]
  IC50: 0.0001 to 10 µM

## CC(C)(C#N)NC(=O)c1cccc(-c2cnc3[nH]c(-c4ccc(C5CC5)cc4)cc3c2)n1 [Compound P-0189, N-(1-cyano-1-methyl-ethyl)-6-[2-(4-cyclopropylphenyl)-1H-pyrrolo[2,3-b]pyridin-5-yl]pyridine-2-carboxamide]
[1]
  IC50: 0.0001 to 10 µM
[2]
  IC50: 0.0001 to 10 µM

## CC(C)(C#N)CNC(=O)c1cccc(-c2cnc3[nH]c(C4=CCN(C(=O)C5CC5)CC4)cc3c2)n1 [Compound P-0162, N-(2-cyano-2-methyl-propyl)-6-[2-[1-(cyclopropanecarbonyl)-3,6-dihydro-2H-pyridin-4-yl]-1H-pyrrolo[2,3-b]pyridin-5-yl]pyridine-2-carboxamide]
[1]
  IC50: 0.0001 to 10 µM
[2]
  IC50: 0.0001 to 10 µM

## CC(C)(C#N)CNC(=O)c1cccc(-c2cnc3[nH]c(C4=CC[S+]([O-])CC4)cc3c2)n1 (stereo not drawn) [Compound P-0161, N-(2-cyano-2-methyl-propyl)-6-[2-(1-oxo-3,6-dihydro-2H-thiopyran-4-yl)-1H-pyrrolo[2,3-b]pyridin-5-yl]pyridine-2-carboxamide]
[1]
  IC50: 0.0001 to 10 µM
[2]
  IC50: 0.0001 to 10 µM

## O=C(NC1(C(F)(F)F)CCCC1)c1cccc(-c2cnc3[nH]c(-c4ccccc4)cc3c2)n1 [Compound P-0149, 6-(2-phenyl1H-pyrrolo[2,3-b]pyridin-5-yl)-N-[1-(trifluoromethyl)cyclopentyl]pyridine-2-carboxamide]
[1]
  IC50: 0.0001 to 10 µM
[2]
  IC50: 0.0001 to 10 µM

## N#CC1CCN(C(=O)c2cccc(-c3cnc4[nH]c(C5=CCN(C(=O)C6CC6)C5)cc4c3)n2)C1 (stereo not drawn) [Compound P-0136, 1-[6-[2-[1-(cyclopropanecarbonyl)-2,5-dihydropyrrol-3-yl]-1H-pyrrolo[2,3-b]pyridin-5-yl]pyridine-2-carbonyl]pyrrolidine-3-carbonitrile]
[1]
  IC50: 0.0001 to 10 µM
[2]
  IC50: 0.0001 to 10 µM

## CC(C)(C#N)CNC(=O)c1cccc(-c2cnc3[nH]c(C4=CCCCC4)cc3c2)n1 [Compound P-0123, N-(2-cyano-2-methyl-propyl)-6-[2-(cyclohexen-1-yl)-1H-pyrrolo[2,3-b]pyridin-5-yl]pyridine-2-carboxamide]
[1]
  IC50: 0.0001 to 10 µM
[2]
  IC50: 0.0001 to 10 µM

## O=C(c1cccc(-c2cnc3[nH]c(-c4ccccc4)cc3c2)n1)N1CCC(n2ccnc2)C1 (stereo not drawn) [Compound P-0097, (3-imidazol-1-ylpyrrolidin-1-yl)-[6-(2-phenyl-1H-pyrrolo[2,3-b]pyridin-5-yl)-2-pyridyl]methanone]
[1]
  IC50: 0.0001 to 10 µM
[2]
  IC50: 0.0001 to 10 µM

## CC(C)(C#N)CNC(=O)c1cccc(-c2cnc3[nH]c(-c4ccccc4)c(Cl)c3c2)n1 [Compound P-0138, 6-(3-chloro-2-phenyl-1H-pyrrolo[2,3-b]pyridin-5-yl)-N-(2-cyano-2-methyl-propyl)pyridine-2-carboxamide]
[1]
  IC50: 0.0001 to 10 µM
[2]
  IC50: 0.0001 to 10 µM

## CC(C)(C#N)CNC(=O)c1cccc(-c2cnc3[nH]c(C4=CCSCC4)cc3c2)n1 [Compound P-0159, N-(2-cyano-2-methyl-propyl)-6-[2-(3,6-dihydro-2H-thiopyran-4-yl)-1H-pyrrolo[2,3-b]pyridin-5-yl]pyridine-2-carboxamide]
[1]
  IC50: 0.0001 to 10 µM
[2]
  IC50: 0.0001 to 10 µM

## CC(C)(C#N)CNC(=O)c1cccc(-c2cnc3[nH]c(-c4ccccc4)c(I)c3c2)n1 [Compound P-0127, N-(2-cyano-2-methyl-propyl)-6-(3-iodo-2-phenyl-1H-pyrrolo[2,3-b]pyridin-5-yl)pyridine-2-carboxamide]
[1]
  IC50: 0.0001 to 10 µM
[2]
  IC50: 0.0001 to 10 µM

## CC(C)(C#N)NC(=O)c1cccc(-c2cnc3[nH]c(-c4cnn(C5CC5)c4)cc3c2)n1 [Compound P-0165, N-(1-cyano-1-methyl-ethyl)-6-[2-(1-cyclopropylpyrazol-4-yl)-1H-pyrrolo[2,3-b]pyridin-5-yl]pyridine-2-carboxamide]
[1]
  IC50: 0.0001 to 10 µM
[2]
  IC50: 0.0001 to 10 µM

## CS(=O)(=O)N1CCC(NS(=O)(=O)c2cccc(-c3cnc4[nH]c(-c5ccccc5)cc4c3)n2)C1 (stereo not drawn) [Compound P-0107, N-(1-methylsulfonylpyrrolidin-3-yl)-6-(2-phenyl-1H-pyrrolo[2,3-b]pyridin-5-yl)pyridine-2-sulfonamide]
[1]
  IC50: 0.0001 to 10 µM
[2]
  IC50: 0.0001 to 10 µM

## N#CCCNC(=O)c1cccc(-c2cnc3[nH]c(-c4ccccc4)c(Cl)c3c2)n1 [Compound P-0125, 6-(3-chloro-2-phenyl-1H-pyrrolo[2,3-b]pyridin-5-yl)-N-(2-cyanoethyl)pyridine-2-carboxamide]
[1]
  IC50: 0.0001 to 10 µM
[2]
  IC50: 0.0001 to 10 µM

## CC(C)(C#N)CNC(=O)c1cccc(-c2cnc3[nH]c(-c4cnn(CC(F)(F)F)c4)cc3c2)n1 [Compound P-0113, N-(2-cyano-2-methyl-propyl)-6-[2-[1-(2,2,2-trifluoroethyl)pyrazol-4-yl]-1H-pyrrolo[2,3-b]pyridin-5-yl]pyridine-2-carboxamide]
[1]
  IC50: 0.0001 to 10 µM
[2]
  IC50: 0.0001 to 10 µM

## CC(C)(C#N)NC(=O)c1cccc(-c2cnc3[nH]c(C4=CCN(C(=O)C5CC5)CC4)cc3c2)n1 [Compound P-0181, N-(1-cyano-1-methyl-ethyl)-6-[2-[1-(cyclopropanecarbonyl)-3,6-dihydro-2H-pyridin-4-yl]-1H-pyrrolo[2,3-b]pyridin-5-yl]pyridine-2-carboxamide]
[1]
  IC50: 0.0001 to 10 µM
[2]
  IC50: 0.0001 to 10 µM

## CC(C)(C#N)CNC(=O)c1cccc(-c2cnc3[nH]c(-c4cnn(C(F)F)c4)cc3c2)n1 [Compound P-0153, N-(2-cyano-2-methyl-propyl)-6-[2-[1-(difluoromethyl)pyrazol-4-yl]-1H-pyrrolo[2,3-b]pyridin-5-yl]pyridine-2-carboxamide]
[1]
  IC50: 0.0001 to 10 µM
[2]
  IC50: 0.0001 to 10 µM

## C#Cc1cc2cc(-c3cccc(C(=O)NC(C)(C)C#N)n3)cnc2[nH]1 [Compound P-0175, N-(1-cyano-1-methyl-ethyl)-6-(2-ethynyl-1H-pyrrolo[2,3-b]pyridin-5-yl)pyridine-2-carboxamide]
[1]
  IC50: 0.0001 to 10 µM
[2]
  IC50: 0.0001 to 10 µM

## CNC(=O)C1CCN(C(=O)c2cccc(-c3cnc4[nH]c(-c5ccccc5)cc4c3)n2)C1 (stereo not drawn) [Compound P-0096, N-methyl-1-[6-(2-phenyl-1H-pyrrolo[2,3-b]pyridin-5-yl)pyridine-2-carbonyl]pyrrolidine-3-carboxamide]
[1]
  IC50: 0.0001 to 10 µM
[2]
  IC50: 0.0001 to 10 µM

Reference: patent US9938273B2 (Plexxikon Inc., priority 2015, dated 2018)
